Laboratory results reported in publication PMC4239038, “The Potent Cdc7-Dbf4 (DDK) Kinase Inhibitor XL413 Has Limited Activity in Many Cancer Cell Lines and Discovery of Potential New DDK Inhibitor Scaffolds” (PLoS ONE, 2014).
Where two headings read alike, the source gives them in different places.

Experiments:
[1] = biological target: T1, purified DDK (Homo sapiens, UniProt O00311); assay: In vitro (γ)-32P ATP DDK kinase assay (DDK auto-phosphorylation); assay type: biochemical; conditions: increasing inhibitor concentrations
T1 construct: His6-Smt3 (SUMO) (N, cleaved yes); made in house; host or cells: E. coli BL21-RIPL (pKT37, pETDuet-1 vector)
T1 sequence (O00311 whole entry): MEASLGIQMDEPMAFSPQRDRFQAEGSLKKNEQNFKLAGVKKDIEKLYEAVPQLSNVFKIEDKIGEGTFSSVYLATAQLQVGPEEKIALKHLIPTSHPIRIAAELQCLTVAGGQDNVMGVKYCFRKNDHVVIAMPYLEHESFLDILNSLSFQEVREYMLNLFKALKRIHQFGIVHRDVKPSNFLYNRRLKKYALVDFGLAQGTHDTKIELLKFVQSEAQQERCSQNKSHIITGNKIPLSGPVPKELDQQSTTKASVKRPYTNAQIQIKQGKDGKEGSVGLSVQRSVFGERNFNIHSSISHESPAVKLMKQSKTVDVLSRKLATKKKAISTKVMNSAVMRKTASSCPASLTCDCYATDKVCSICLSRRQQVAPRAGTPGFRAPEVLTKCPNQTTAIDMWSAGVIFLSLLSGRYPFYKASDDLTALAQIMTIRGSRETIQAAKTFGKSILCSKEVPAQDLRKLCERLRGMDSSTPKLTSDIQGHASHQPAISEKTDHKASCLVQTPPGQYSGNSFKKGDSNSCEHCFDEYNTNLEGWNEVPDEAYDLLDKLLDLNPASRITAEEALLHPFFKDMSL
T1 sequence (Q9UBU7 341-674 partner limits assumed): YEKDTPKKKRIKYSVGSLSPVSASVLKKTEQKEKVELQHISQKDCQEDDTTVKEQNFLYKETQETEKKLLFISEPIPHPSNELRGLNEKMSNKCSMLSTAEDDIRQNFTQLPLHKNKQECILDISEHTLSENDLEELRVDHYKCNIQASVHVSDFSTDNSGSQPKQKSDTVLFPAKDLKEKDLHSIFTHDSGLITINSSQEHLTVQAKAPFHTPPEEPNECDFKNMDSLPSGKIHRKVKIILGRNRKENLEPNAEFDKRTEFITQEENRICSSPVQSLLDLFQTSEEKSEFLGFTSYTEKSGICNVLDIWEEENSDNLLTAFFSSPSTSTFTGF

[2] = tested on: HCC1954 cells; assay: Cell viability, CellTiter-Glo; assay type: cell-based; conditions: Homo sapiens, HCC1954, 72 h
[3] = tested on: Colo-205 cells; assay: Cell viability, CellTiter-Glo; assay type: cell-based; conditions: Homo sapiens, COLO 205, 72 h
[4] = tested on: HCT116 (p53+/+) cells; assay: Cell viability, CellTiter-Glo; assay type: cell-based
[5] = tested on: HCT116 (p53-/-) cells; assay: Cell viability, CellTiter-Glo; assay type: cell-based; conditions: Homo sapiens, HCT-116, 72 hrs post drug addition
[6] = tested on: Eight tumor cell lines; assay: Cell viability at 5 µM inhibitor, cell line panel; assay type: cell-based; conditions: 72 hrs, relative to vehicle controls
[7] = tested on: HCC1954 cells; assay: Caspase 3/7 activity (apoptosis); assay type: cell-based; conditions: HCC1954, 24 hours
Protocol: Caspase 3/7 activity and viable cell number were then measured using the Caspase-Glo 3/7 assay (Promega) and CellTiter-Glo assay (Promega), respectively.

[8] = tested on: Mcm2 Serine 53 phosphorylation in HCC1954 cells; assay: Immunoblot of DDK-dependent Mcm2 phosphorylation; assay type: cell-based; conditions: HCC1954, 5 µM
Protocol: Whole cell extracts were prepared by re-suspending the pellets in RIPA buffer (150 mM NaCl, 1% NP-40, 0.5% sodium deoxycholate, 0.1% SDS, 50 mM Tris HCl, pH 8) containing protease inhibitors (100 µM PMSF, 1 mM Benzamide, 2.5 µg/ml Pepstatin A, 10 µg/ml Leupeptin, and 10 µg/ml Aprotinin) and phosphatase inhibitors (1 mM each NaF, Na3VO4 and Na4P2O7). Protein concentration was measured using the BCA protein assay kit (Pierce) according to manufacturer's protocol. Equal amounts of protein were subjected to SDS-PAGE and transferred to a nitrocellulose membrane (Millipore). Transfer efficiency and equal loading was confirmed by Ponceau S staining. Following primary and secondary antibody treatments, proteins were visualized using SuperSignal West Pico solutions (Thermo Scientific). Anti-Mcm2 and anti-S53-phospho-Mcm2 antibodies were purchased from Bethyl Laboratories; anti-β-actin was from Sigma; anti-mouse and anti-rabbit HRP antibodies were from GE Healthcare; and anti-Cdc7 and anti-Dbf4 antibodies were described previously.
Effective cellular uptake of the DDK inhibitor should compromise DDK activity in vivo. Among the many targets of DDK are components of the replicative Mcm2–7 helicase. Serine 53 of Mcm2 subunit is a well-characterized target site for DDK mediated phosphorylation. We quantitated levels of phosphorylation on this site as a measure of DDK activity in vivo. […] Cells were then harvested at 0, 24, 48, and 72 hours post drug addition to measure viable cells and Mcm2 phosphorylation by immunoblotting.

[9] = tested on: Mcm2 phosphorylation in Colo-205 cells; assay: Immunoblot of DDK-dependent Mcm2 phosphorylation; assay type: cell-based; conditions: Colo-205, 5 µM, 24 hours
[10] = tested on: Colo-205 cells; conditions: Colo-205, 24 hours
[11] = tested on: DDK; conditions: purified DDK ref 49; read-out: DDK IC50 (in vitro); cited from earlier work
[12] = tested on: Colo-205 cells; set-up: method as in PMID 22560567; conditions: Colo-205 ref 49; read-out: Cellular Proliferation IC50; cited from earlier work
[13] = tested on: panel of 100 kinases; set-up: method as in PMID 22560567; conditions: panel of 100 kinases ref 49; cited from earlier work

- IC50 [1]: 22.7 nM
- IC50 ([2]; HCC1954, 72 hrs post drug addition): 22900 nM
- IC50 ([2]; XL413 from commercial supplier MedKoo): 22400 nM
- IC50 ([3]; Colo-205, 72 hrs post drug addition): 1100 nM
- IC50 ([3]; Colo-205, 72 hrs, XL413 from commercial supplier MedKoo): 600 nM
- IC50 ([4]; Homo sapiens, HCT-116, HCT116 (p53+/+), 72 hrs post drug addition): 28700 nM
- IC50 higher than PHA-767491 ([4]; two additional colorectal tumor cell lines (HCT116 p53+/+ and p53-/-)): 40- to 60 fold
- IC50 [5]: 36600 nM
SMILES: O=c1[nH]c([C@@H]2CCCN2)nc2c1oc1ccc(Cl)cc12 [XL413, (S)-8-chloro-2-(pyrrolidin-2-yl)benzofuro[3,2-d]pyrimidin-4(3H)-one]
- Anti-proliferative activity [6]: anti-proliferative only in the Colo-205 cells
- Apoptosis induction (Caspase 3/7 activity) [7]: induced apoptosis only in the Colo-205 cells
- Mcm2 phosphorylation ([8]; 24 hrs): did not inhibit Mcm2 phosphorylation
- Mcm2 phosphorylation ([8]; 72 hours): only a modest decrease in Mcm2 phosphorylation
- Mcm2 phosphorylation [9]: completely abolished Mcm2 phosphorylation
- Apoptosis induction (Caspase 3/7 activity) [10]: induced apoptosis only in the Colo-205 cells
- IC50 [11]: 3.4 nM
- IC50 [12]: 2690 nM
- Selectivity for DDK [13]: highly selective for DDK
